Laboratory results from US7229826B2, “Process for ex vivo formation of mammalian bone and uses thereof” (The Regents of the University of Michigan, priority 1999, dated 2007).
“Also recorded” adds a separate entry of the source.

Key:
Format in all cases: cell-based
[1] = system: human osteogenic cells (MG63, HBPC, primary osteoblasts); experiment: Inhibition of cell condensation (bone cell spheroid and microspicule formation); conditions: EGTA 0.5 mM; puromycin 5 μM; spheroid-forming conditions with TGF-β1
Experimental: Inhibition of Cell Condensation. Cells were cultured in serum-free media under conditions that establish bone cell spheroids (as described above) in the presence of neutralizing antibodies to α2, α3, and/or β1 integrins, at 10 μg/ml. Isotype-specific inappropriate antibodies served as negative controls. Antibodies were added every second day over a seven-day culture period. EGTA (0.5 mM) was also used inhibition of cell aggregation, as was puromycin (5 μM).

[2] = system: human osteogenic cells (MG63, HBPC, primary osteoblasts); experiment: TGF-β1-induced bone cell spheroid formation in serum-free culture; conditions: 200 pM TGF-β1, serum-free, immediately following trypsinization
Experimental: Culture of Osteogenic Cells and Cell Lines. Osteogenic cell lines such as human osteosarcoma cells (MG63) were cultured in RPMI 1640 (Gibco, Grand Island. N.Y.) containing 2 mM L-Glutamine, sodium pyruvate and 10% Fetal Calf Serun (FCS) (Hyclone Labs Inc., Logan, Utah). For bone cell spheroid formation, cells were grown to confluency, trypsinized, washed two times in RPMI, and immediately cultured in serum-free media containing 1% ITS+ (Collaborative Research Inc.) and 200 pM TGF-β1 (Collaborative). Unless otherwise noted, cells are plated at a density of about 10^3 to 10^6 cells/cm^2 in tissue culture dishes. Control cells were allowed to adhere to plastic for 3–4 hours in serum containing medium following trypsinization. This adherent cell layer was then washed twice with serum-free medium and cultured as above with or without TGF-β1.
Bone Cell-Spheroid Formation. In order to induce three-dimensional cell development (i.e., bone cell spheroids), cells were trypsinized as routinely performed for passage, the trypsin inactivated by serum addition, the cells washed three times, and immediately cultures in RPMI/ITS^+ (see above) containing 200 pM TGF-β1, Control cells were allowed to adhere to plastic for 3–4 hours in serum containing medium following trypsinization. This adherent cell layer was then washed twice with serum-free medium and cultured as above with or without TGF-β1.

[3] = system: human osteogenic cells (MG63, HBPC, primary osteoblasts); experiment: Western analysis of bone protein expression in spheroids; conditions: each osteogenic cell type; versus serum-free cells in the absence of TGF-β1
Experimental: Western Analysis. The procedure used was essentially that of Towbin (1979). Samples were run on a 10% SDS-PAGE. The electrophoretically resolved proteins were transferred to nitrocellulose (Schleicher & Schuell; Keene, N.H.) and the nonspecific binding sites blocked using 5% Skim milk in TBST (10 mM Tris, 0.15M NaCl, 0.05% Tween 20, pH 7.5). The nitrocellulose membrane was incubated with primary antibodies: anti-Osteonectin (ON), anti-alkaline phosphatase, (both generous gifts of Dr. Kenneth Mann, University of Vermont) or anti-Type I collagen (Collaborative); each at 10 μg/ml in TBST) for 1 hour at room temperature, washed with TBST and treated with the secondary antibody (anti-mouse IgG-HRP conjugated; Amersham) at a 1:1000 dilution in the same buffer. The HRP/anitbody-labeled proteins were visualized by enhanced chemilluminescence (Pierce).

[4] = system: murine LTBMC (unfractionated bone marrow); experiment: Murine long-term bone marrow culture (LTBMC) osteogenesis, von Kossa / Masson positive foci and microspicules
Description: The inventors therefore established murine LTBMC and probed their capacity to express markers of osteogenesis. […] Additionally, they have developed a smaller culture volume system (dropping from 100 -mm tissue culture dishes to 35 mm ones) to allow better utilization of human osteoblasts. Using this modification on murine cells (which respond less robustly to TGF-β as a solitary cytokine), the inventors examined the role of IGF in modulating this process.
Endothelial cells are important sources of cytokines for both hematopoietic and osteogenesis cells. An important regulator of endothelial cells, VEGF, is known to affect both endothelial cells, and bone cell development (although it is not clear if the latter is a direct effect).

[5] = system: primary osteoblasts isolated from human bone; experiment: Collagen synthesis by 3H-proline incorporation, delayed reduction electrophoresis; conditions: densitometry
Experimental: Collagen Synthesis. At the times indicated, bone cell-spheroids were washed with prolene-free DMEM containing 1% ITS, and incubated for 12 hours in the presence of ITS^+ and 100 μCi/ml (^3H) Proline (Amersham). Cells and medium were harvested, and cell lysates were made. Protein content was estimated by the BCA method (Smith, 1985), using a kit from Pierce (Rockford, Ill.). The cell lysates were lyophilized and extracted overnight at 4° C. with 0.5M acetic acid containing 100 μg/ml pepsin (Sigma Chemical Co., St. Louis, Mo.). Samples were dried, dissolved in non-reducing SDS-gel buffer and analyzed on a 5% SDS-gel. The αl(1) and αl(111) components were resolved by delayed reduction electrophoresis (Sykes, 1976). The gels were treated with Amplify (Amersham, England), and the radiolabeled collagen visualized by autoradiography. The percentage of Type I collagen was determined using the following formula (Franceschi, 1988).

Molecule: O=C(O)CN(CCOCCOCCN(CC(=O)O)CC(=O)O)CC(=O)O [EGTA]
- spheroid formation (effect in words) [1]: completely inhibited

Molecule: COc1ccc(C[C@H](N)C(=O)N[C@H]2[C@@H](O)[C@H](n3cnc4c(N(C)C)ncnc43)O[C@@H]2CO)cc1 [puromycin]
- spheroid formation (effect in words) [1]: completely blocked; also recorded: completely inhibited

Molecule: TGF-β1: multifunctional cytokine of the TGF-β family, osteogenic growth factor used at 200 pM (human) or 25 pM (murine)
- time to formation of three-dimensional spherical cellular condensates (cell spheroids) [2]: 24 to 48 h
- expression of osteonectin and alkaline phosphatase [3]: markedly increases
- capacity to drive murine osteogenesis (individually) ([4]; TGF-b 25 pM, IGF 15 pM, each alone): little capacity
- increase in collagen synthesis on TGF-β1-dependent spheroid formation [5]: two to three fold increase

Molecule: VEGF
- increase in number of von Kossa cellular foci ([4]; VEGF 10 ng/mL): 2.5 fold
- increase in number of collagen-positive and von Kossa-positive developmental foci per culture ([4]; VEGF 10 ng/mL added to LTBMC): 75–80%
- increase in number of microspicules per culture ([4]; VEGF 10 ng/mL, over the first three weeks of culture): ~5 fold
